Reference: ChEMBL document CHEMBL1153448, “Diether derivatives of homo- or substituted piperidines as non-imidazole histamine H3 receptor ligands” (Bioorg Med Chem, 2009)
pKi: −log10 of the molar value.

Columns and labels:
[1] = molecular target: Histamine H3 receptor (Rattus norvegicus, UniProt Q9QYN8); assay: Binding affinity to histamine H3 receptor in rat cerebral cortex; type: tissue-based
[2] = molecular target: Histamine H3 receptor (Homo sapiens, UniProt Q9Y5N1); assay: Displacement of [125I]Iodoproxyfran from human histamine H3 receptor expressed in HEK293 cells; type: cell-based
Chain of Histamine H3 receptor (Homo sapiens, UniProt Q9Y5N1) (Q9Y5N1 whole entry): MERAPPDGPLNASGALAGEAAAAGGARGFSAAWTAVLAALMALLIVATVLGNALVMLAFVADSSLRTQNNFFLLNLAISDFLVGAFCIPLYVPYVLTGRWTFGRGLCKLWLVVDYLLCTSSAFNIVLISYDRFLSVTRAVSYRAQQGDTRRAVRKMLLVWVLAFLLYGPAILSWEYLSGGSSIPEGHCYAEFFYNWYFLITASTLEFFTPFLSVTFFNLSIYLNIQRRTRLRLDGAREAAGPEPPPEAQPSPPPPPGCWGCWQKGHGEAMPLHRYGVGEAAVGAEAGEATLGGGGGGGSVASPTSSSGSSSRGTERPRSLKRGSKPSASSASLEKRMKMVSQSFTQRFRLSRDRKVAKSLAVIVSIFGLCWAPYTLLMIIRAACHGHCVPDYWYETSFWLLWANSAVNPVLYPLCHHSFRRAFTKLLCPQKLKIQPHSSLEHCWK

Chain of Histamine H3 receptor (Rattus norvegicus, UniProt Q9QYN8) (Q9QYN8 whole entry): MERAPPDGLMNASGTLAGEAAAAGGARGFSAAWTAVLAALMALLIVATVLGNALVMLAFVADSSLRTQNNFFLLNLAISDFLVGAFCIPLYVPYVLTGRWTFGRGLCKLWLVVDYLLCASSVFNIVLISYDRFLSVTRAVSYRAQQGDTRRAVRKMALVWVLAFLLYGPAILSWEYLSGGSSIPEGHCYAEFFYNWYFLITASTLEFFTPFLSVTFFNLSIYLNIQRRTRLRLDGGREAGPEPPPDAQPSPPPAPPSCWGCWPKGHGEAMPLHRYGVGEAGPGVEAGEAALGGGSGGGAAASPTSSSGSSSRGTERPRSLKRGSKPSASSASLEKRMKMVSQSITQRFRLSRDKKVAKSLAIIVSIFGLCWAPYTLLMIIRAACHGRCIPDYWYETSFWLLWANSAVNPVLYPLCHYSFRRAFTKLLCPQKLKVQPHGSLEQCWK

Row | pKi [1] | pKi [2] | SMILES
1 | 7.77 | – | Clc1ccc(CCCOCCCN2CCCCC2)cc1 [PITOLISANT]
2 | – | 8.14 | COc1cccc(OCCOCCCN2CCCCCC2)c1
3 | – | 7.29 | CC1CCN(CCCOCCCOc2ccc(C(C)(C)C)cc2)CC1
4 | – | 8.49 | CC1CCCN(CCCOCCCOc2ccc(Cl)cc2)C1 (stereo not drawn)
5 | – | 8.11 | CC(C)(C)c1ccc(OCCCOCCCN2CCCCCC2)cc1
6 | – | 7.90 | COc1cccc(OCCOCCCN2CCC(C)CC2)c1
7 | – | 7.56 | COc1cccc(OCCCOCCCN2CCCC(C)C2)c1 (stereo not drawn)
8 | – | 7.31 | COc1cccc(OCCCOCCCN2CCC(C)CC2)c1
9 | – | 7.83 | COc1cccc(OCCOCCCN2CCCC(C)C2)c1 (stereo not drawn)
10 | – | 7.55 | CC1CCN(CCCOCCCOc2ccc(Cl)cc2)CC1
11 | – | 7.21 | CC1CCCN(CCCOCCOc2ccc(C(C)(C)C)cc2)C1 (stereo not drawn)
12 | – | 7.89 | CC1CCCN(CCCOCCCOc2ccc(C(C)(C)C)cc2)C1 (stereo not drawn)
13 | – | 7.73 | COc1cccc(OCCCOCCCN2CCCCCC2)c1
